Source: patent US12240838B2, “Inhibiting agents for Bruton's tyrosine kinase” (BIOGEN MA INC., priority 2019, dated 2025)
pIC50: −log10 of the molar value.

Experiments:
BTK [1] = target: T1, BTK (Homo sapiens (Human), UniProt Q06187); assay: In Vitro BTK Kinase Assay: BTK-POLYGAT-LS ASSAY; format: biochemical; details: ATP 10 μM, polyGAT 100 nM, BTK 0.25 nM, 30 minutes
Procedure: The purpose of the BTK in vitro assay is to determine compound potency against BTK through the measurement of IC50. […] The BTK kinase reaction was done in a black 96 well plate (costar 3694). For a typical assay, a 24 μL aliquot of a ATP/peptide master mix (final concentration; ATP 10 μM, polyGAT 100 nM) in kinase buffer (10 mM Tris-HCl pH 7.5, 10 mM MgCl2, 200 μM […], 5 mM DTT, 0.01% Triton X-100, and 0.2 mg/ml casein) is added to each well. Next, […] of a 4-fold, 40× compound titration in 100% DMSO solvent is added, followed by adding 15 μL of BTK enzyme mix in 1× kinase buffer (with a final concentration of 0.25 nM). The assay is incubated for 30 minutes before being stopped with […] of a 50 mM EDTA solution. Aliquots (5 μL) of the kinase reaction are transferred to a low volume white 384 well plate (Coming 3674), and […] of a 2× detection buffer (Invitrogen PV3574, with 4 nM Tb-PY20 antibody, Invitrogen PV3552) is added. The plate is covered and incubated for 45 minutes at room temperature. Time resolved fluorescence (TRF) on Molecular Devices M5 (332 nm excitation; 488 nm emission; 518 nm fluorescein emission) is measured.

BTK [2] = target: T1, BTK; assay: In Vitro PD Assay in Human Whole Blood (pBTK assay); format: cell-based; details: 37° C. for 30 min, 50% inhibition of ECL signal
Procedure: Human heparinized venous blood was purchased from Bioreclamation, Inc. or SeraCare Life Sciences and shipped overnight. Whole blood was aliquoted into 96-well plate and “spiked” with serial dilutions of test compound in DMSO or with DMSO without drug. The final concentration of DMSO in all wells was 0.1%. The plate was incubated at 37° C. for 30 min. Lysis buffer containing protease and phosphatase inhibitors was added to the drug-containing samples and one of the DMSO-only samples (+PPi, high control), while lysis buffer containing protease inhibitors was added to the other DMSO-only samples (−PPi, low control). All of the lysed whole blood samples were subjected to the total BTK capture and phosphotyrosine detection method described in US20160311802, incorporated herein by reference.

T1 sequence (Q06187 whole entry): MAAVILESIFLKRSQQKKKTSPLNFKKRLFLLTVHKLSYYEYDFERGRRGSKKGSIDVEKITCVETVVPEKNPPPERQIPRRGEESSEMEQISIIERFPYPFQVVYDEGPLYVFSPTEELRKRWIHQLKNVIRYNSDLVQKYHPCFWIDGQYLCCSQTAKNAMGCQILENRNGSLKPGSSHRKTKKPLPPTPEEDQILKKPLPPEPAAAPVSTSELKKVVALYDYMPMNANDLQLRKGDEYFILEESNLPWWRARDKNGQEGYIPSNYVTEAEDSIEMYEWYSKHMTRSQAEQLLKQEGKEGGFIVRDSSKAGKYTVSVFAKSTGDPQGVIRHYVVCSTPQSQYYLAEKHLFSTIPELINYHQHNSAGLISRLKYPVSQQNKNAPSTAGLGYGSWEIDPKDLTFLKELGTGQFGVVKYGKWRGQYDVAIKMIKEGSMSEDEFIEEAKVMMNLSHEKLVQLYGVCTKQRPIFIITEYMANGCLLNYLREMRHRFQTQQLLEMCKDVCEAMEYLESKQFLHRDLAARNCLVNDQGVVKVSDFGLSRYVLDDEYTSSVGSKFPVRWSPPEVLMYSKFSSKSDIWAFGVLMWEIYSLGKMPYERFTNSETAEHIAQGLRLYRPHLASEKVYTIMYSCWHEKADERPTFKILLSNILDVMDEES

| SMILES | pIC50 (BTK [1]) | pIC50 (BTK [2]) |
| --- | --- | --- |
| Cc1cc(-c2ccnc(NC(=O)[C@@H]3C[C@@H]3F)c2)ccc1CNC(=O)c1noc(C(C)(C)C)n1 (single isomer, unassigned) [Compound 3] | ≥ 9.00 | ≥ 7.00 |
| Cc1cc(-c2ccnc(NC(=O)[C@H]3C[C@H]3F)c2)ccc1CNC(=O)c1noc(C(C)(C)C)n1 (single isomer, unassigned) [Compound 4] | ≥ 9.00 | – |
| Cc1cc(-c2ccnc(NC(=O)[C@H]3C[C@@H]3C)c2)ccc1CNC(=O)c1noc(C(C)(C)C)n1 [Compound 5, 5-(tert-butyl)-N-(2-methyl-4-(2-((1S,2S)-2-methylcyclopropane-1-carboxamido)pyridin-4-yl)benzyl)-1,2,4-oxadiazole-3-carboxamide] | ≥ 9.00 | ≥ 7.00 |
| Cc1cc(-c2ccnc(NC(=O)[C@@H]3C[C@H]3C)c2)ccc1CNC(=O)c1noc(C(C)(C)C)n1 [Compound 6, 5-(tert-butyl)-N-(2-methyl-4-(2-((1R,2R)-2-methylcyclopropane-1-carboxamido)pyridin-4-yl)benzyl)-1,2,4-oxadiazole-3-carboxamide] | ≥ 9.00 | ≥ 7.00 |
| Cc1cc(-c2cc(NC(=O)C3CC3)ncc2Cl)ccc1CNC(=O)c1noc(C(C)(C)C)n1 [Compound 7, 5-(tert-butyl)-N-(4-(5-chloro-2-(cyclopropanecarboxamido)pyridin-4-yl)-2-methylbenzyl)-1,2,4-oxadiazole-3-carboxamide] | ≥ 9.00 | 6.30 to 7.00 |
| CC(C)(C)c1nc(C(=O)N[C@@H]2CCN(CC(F)(F)F)Cc3cc(-c4ccnc(NC(=O)C5CC5)c4)ccc32)no1 [Compound 10, (R)-5-(tert-butyl)-N-(8-(2-(cyclopropanecarboxamido)pyridin-4-yl)-2-(2,2,2-trifluoroethyl)-2,3,4,5-tetrahydro-1H-benzo[c]azepin-5-yl)-1,2,4-oxadiazole-3-carboxamide] | ≥ 9.00 | ≥ 7.00 |
| Cc1c(CNC(=O)c2noc(C(C)(C)C)n2)ccc(-c2ccnc(NC(=O)C3CC3)c2)c1F [Compound 11, 5-(tert-butyl)-N-(4-(2-(cyclopropanecarboxamido)pyridin-4-yl)-3-fluoro-2-methylbenzyl)-1,2,4-oxadiazole-3-carboxamide] | ≥ 9.00 | ≥ 7.00 |
| Cc1cc(-c2ccnc(NC(=O)C3CC3)c2)c(F)cc1CNC(=O)c1nc(C(C)(C)C)no1 [Compound 12, 3-(tert-butyl)-N-(4-(2-(cyclopropanecarboxamido)pyridin-4-yl)-5-fluoro-2-methylbenzyl)-1,2,4-oxadiazole-5-carboxamide] | ≥ 9.00 | 6.30 to 7.00 |
| Cc1cc(-c2ccnc(NC(=O)C3CC3)c2)c(F)cc1CNC(=O)c1noc(C(C)(C)C)n1 [Compound 13, 5-(tert-butyl)-N-(4-(2-(cyclopropanecarboxamido)pyridin-4-yl)-5-fluoro-2-methylbenzyl)-1,2,4-oxadiazole-3-carboxamide] | ≥ 9.00 | ≥ 7.00 |
| CC(C)(C)c1nc(C(=O)NCc2ccc(-c3ccnc(NC(=O)C4CC4)c3)c(F)c2Cl)no1 [Compound 14, 5-(tert-butyl)-N-(2-chloro-4-(2-(cyclopropanecarboxamido)pyridin-4-yl)-3-fluorobenzyl)-1,2,4-oxadiazole-3-carboxamide] | ≥ 9.00 | ≥ 7.00 |
| Cc1cc(-c2ccnc(NC(=O)C3C4COCC43)c2)ccc1CNC(=O)c1noc(C(C)(C)C)n1 (centres unmarked) [Compound 23] | 8.00 to 9.00 | – |
| CC(C)(C)c1nc(C(=O)N[C@@H]2CCCCc3cc(-c4ccnc(NC(=O)C5CC5)c4)c(F)cc32)no1 [Compound 24, (R)-5-(tert-butyl)-N-(2-(2-(cyclopropanecarboxamido)pyridin-4-yl)-3-fluoro-6,7,8,9-tetrahydro-5H-benzo[7]annulen-5-yl)-1,2,4-oxadiazole-3-carboxamide] | ≥ 9.00 | – |
| Cc1cc(-c2ccnc(NC(=O)C3CC3C(F)(F)F)c2)ccc1CNC(=O)c1noc(C(C)(C)C)n1 (centres unmarked) [Compound 25, 5-(tert-butyl)-N-(2-methyl-4-(2-(2-(trifluoromethyl)cyclopropane-1-carboxamido)pyridin-4-yl)benzyl)-1,2,4-oxadiazole-3-carboxamide] | 8.00 to 9.00 | – |
| CC(C)(C)c1noc(C(=O)NCc2ccc(-c3ccnc(NC(=O)C4CC4)c3)c(F)c2C(F)F)n1 [Compound 27, 3-(tert-butyl)-N-(4-(2-(cyclopropanecarboxamido)pyridin-4-yl)-2-(difluoromethyl)-3-fluorobenzyl)-1,2,4-oxadiazole-5-carboxamide] | ≥ 9.00 | – |
| Cc1cc(-c2ccnc(NC(=O)C3CC3)c2)ccc1CNC(=O)c1nn(C(C)(C)C)cc1F [Compound 28, 1-(tert-butyl)-N-(4-(2-(cyclopropanecarboxamido)pyridin-4-yl)-2-methylbenzyl)-4-fluoro-1H-pyrazole-3-carboxamide] | ≥ 9.00 | – |
| CC(C)(C)c1nc(C(=O)N[C@@H]2CCCCc3c2ccc(-c2ccnc(NC(=O)C4CC4)c2)c3F)no1 [Compound 40, (R)-5-(tert-butyl)-N-(2-(2-(cyclopropanecarboxamido)pyridin-4-yl)-1-fluoro-6,7,8,9-tetrahydro-5H-benzo[7]annulen-5-yl)-1,2,4-oxadiazole-3-carboxamide] | ≥ 9.00 | – |
| CC(C)(C)c1noc(C(=O)N[C@@H]2CCCCc3cc(-c4ccnc(NC(=O)[C@@H]5C[C@@H]5C#N)c4)ccc32)n1 [Compound 50, 3-(tert-butyl)-N-((R)-2-(2-((1R,2S)-2-cyanocyclopropane-1-carboxamido)pyridin-4-yl)-6,7,8,9-tetrahydro-5H-benzo[7]annulen-5-yl)-1,2,4-oxadiazole-5-carboxamide] | ≥ 9.00 | – |
| CC(C)(C)c1nc(C(=O)NCc2cc(F)c(-c3ccnc(NC(=O)C4CC4)c3)cc2C(F)(F)F)no1 [Compound 62, 5-(tert-butyl)-N-(4-(2-(cyclopropanecarboxamido)pyridin-4-yl)-5-fluoro-2-(trifluoromethyl)benzyl)-1,2,4-oxadiazole-3-carboxamide] | – | 5.00 to 6.30 |
| Cc1c([C@@H](C)NC(=O)c2nc(C(C)(C)C)no2)ccc(-c2ccnc(NC(=O)C3CC3)c2)c1F [Compound 66, (R)-3-(tert-butyl)-N-(1-(4-(2-(cyclopropanecarboxamido)pyridin-4-yl)-3-fluoro-2-methylphenyl)ethyl)-1,2,4-oxadiazole-5-carboxamide] | ≥ 9.00 | – |
| C[C@@H](NC(=O)c1noc(C(C)(C)C)n1)c1ccc(-c2ccnc(NC(=O)C3CC3)c2)c(F)c1Cl [Compound 74, (R)-5-(tert-butyl)-N-(1-(2-chloro-4-(2-(cyclopropanecarboxamido)pyridin-4-yl)-3-fluorophenyl)ethyl)-1,2,4-oxadiazole-3-carboxamide] | ≥ 9.00 | – |
| C[C@@H](NC(=O)c1nc(C(C)(C)C)no1)c1ccc(-c2ccnc(NC(=O)C3CC3)c2)c(F)c1Cl [Compound 75, (R)-3-(tert-butyl)-N-(1-(2-chloro-4-(2-(cyclopropanecarboxamido)pyridin-4-yl)-3-fluorophenyl)ethyl)-1,2,4-oxadiazole-5-carboxamide] | ≥ 9.00 | – |
| Cc1cc(-c2ccnc(NC(=O)C3CC3)c2)c(F)cc1[C@@H](C)NC(=O)c1noc(C(C)(C)C)n1 [Compound 85, (R)-5-(tert-butyl)-N-(1-(4-(2-(cyclopropanecarboxamido)pyridin-4-yl)-5-fluoro-2-methylphenyl)ethyl)-1,2,4-oxadiazole-3-carboxamide] | ≥ 9.00 | – |
| CC(C)(C)c1nc(C(=O)NCc2ccc(-c3ccnc(NC(=O)C4CC4)c3)c(F)c2C(F)(F)F)no1 [Compound 86, 5-(tert-butyl)-N-(4-(2-(cyclopropanecarboxamido)pyridin-4-yl)-3-fluoro-2-(trifluoromethyl)benzyl)-1,2,4-oxadiazole-3-carboxamide] | ≥ 9.00 | – |
| COc1cc(-c2ccnc(NC(=O)C3CC3)c2)ccc1CNC(=O)c1noc(C(C)(C)C)n1 [Compound 87, 5-(tert-butyl)-N-(4-(2-(cyclopropanecarboxamido)pyridin-4-yl)-2-methoxybenzyl)-1,2,4-oxadiazole-3-carboxamide] | ≥ 9.00 | – |
| CC(C)(C)c1nc(C(=O)NCc2ccc(-c3ccnc(NC(=O)C4CC4)c3)cc2C2CCC2)no1 [Compound 88, 5-(tert-butyl)-N-(2-cyclobutyl-4-(2-(cyclopropanecarboxamido)pyridin-4-yl)benzyl)-1,2,4-oxadiazole-3-carboxamide] | ≥ 9.00 | – |
| Cc1cc(-c2ccnc(NC(=O)C3CC3)c2)ccc1CNC(=O)c1cn(C(C)(C)C)cn1 [Compound 95, 1-(tert-butyl)-N-(4-(2-(cyclopropanecarboxamido)pyridin-4-yl)-2-methylbenzyl)-1H-imidazole-4-carboxamide] | 6.00 to 8.00 | – |
